Read-outs that look alike come from different tables or passages of the source.
Key:
[1] = biological target: T1, TSPO receptors in SCC-25 cell line (Homo sapiens, UniProt P30536); assay: Displacement of [3H]PK11195 from TSPO receptors in SCC-25 cells; type: binding; details: for potency in displacing [3H]PK11195, fold lower than PK11195: SCC-25 membrane, relative to PK11195
T1 construct: endogenous in cells; host or cells: SCC-25
Experimental: (§1) Cells were scraped from the culture dishes, washed with phosphate-buffered saline (PBS), and centrifuged at 1200 g for 10 minutes. Then the cell pellets were re-suspended in 1 mL of 50 mM phosphate buffer, pH 7.4, and centrifuged at 1200 g for 10 minutes. […] After incubation for 80 minutes at room temperature, samples were filtered under vacuum over Whatman GF/B filters and washed three times with phosphate buffer. Filters were placed in vials containing 4 mL of Opti-Fluor (Packard, Groningen, The Netherlands) and counted for radioactivity in a scintillation counter after 12 hours. The maximal number of binding sites (Bmax) and equilibrium dissociation constants were calculated from the saturation curve of [^3H]

H1299 lung cancer cells = assay: Survival of H1299 cells exposed to cigarette smoke with/without saliva; type: cell-based, human; details: for effect on survival of H1299 cells exposed to CS (in words): CS + 30% saliva
Experimental: Four control groups, not exposed to tobacco smoke (referred to herein as TS or alternatively, as CS, standing for “cigarette smoke”) were compared to four study groups (similar groups which were also exposed to CS), as detailed hereinafter. The four control groups included the following: a group where the cells were incubated in medium alone and exposed to air (M), a group where the cells were incubated in medium supplemented with whole saliva and exposed to air (M+saliva), a group where the cells where incubated in medium and exposed to CS (M+CS) and a group where the cells were incubated in medium supplemented with saliva and exposed to CS (M+saliva+CS).
During smoke exposure, the cells were put into a smoking sealed chamber (33.5 cm^3) with CS pressure of 0.3 Bar. Control cells were subjected to the same procedures, but exposed only to fresh air. Cells were exposed to CS for one “puff” every 20 minutes for a 2 hours (120 minutes) period (unless indicated otherwise). Cells exposed to air served as control. Cells were used when it becomes confluent and the medium (with/without saliva) volume was compatibly to the dish in use.
In order to examine the possible effect of TSPO receptor ligands on the survival rate of cells exposed to both CS and saliva, the benzodiazepine TSPO ligand, diazepam, was added to cells prior to exposing the cells to CS+30% saliva.

[2] = biological target: T2, TSPO receptors in SCC-15 cell line (Homo sapiens, UniProt P30536); assay: Displacement of [3H]PK11195 from TSPO receptors in SCC-15 cells; type: binding
T2 construct: endogenous in cells; host or cells: SCC-15
Experimental: as §1

human salivary TSPO = biological target: T3, human salivary TSPO (Homo sapiens, UniProt P30536); assay: Competition of TSPO ligands with [3H]PK11195 binding in human saliva; details: for binding affinity lower than that of PK11195: relative to PK11195
T3 construct: from tissue; host or cells: cells pelleted from human saliva samples (volunteers; smokers and non-smokers)
Experimental: (§2) After 80 minutes of incubation at 4° C., the samples were filtered through Whatman CF/C filters using a vacuum system, washed three times with 4 ml of 5 mM ice-cold phosphate buffer and placed in vials containing 4 ml of Opti-Fluor. Radioactivity was counted after 12 hours with a liquid scintillation analyzer. Specific binding was obtained by subtracting non specific binding from total binding.

TSPO receptor in saliva [3] = biological target: T4, TSPO receptor in saliva (Homo sapiens, UniProt P30536); assay: [3H]PK11195 saturation binding with Scatchard analysis in human saliva; details: n=10
T4 construct: from tissue; host or cells: cells pelleted from human saliva samples (volunteers; smokers and non-smokers)
Experimental: as §2

[4] = biological target: T5, TSPO receptors in H1299 lung cancer cells (Homo sapiens, UniProt P30536); assay: [3H]PK11195 saturation binding (Scatchard) in H1299 cells
T5 construct: Cells were scraped from the culture dishes, washed with phosphate-buffered saline (PBS), and centrifuged; endogenous in cells; host or cells: H1299
Experimental: as §1

[5] = biological target: T6, TSPO receptors in human tongue cancer cell line SCC-25 (Homo sapiens, UniProt P30536); assay: [3H]PK11195 saturation binding (Scatchard) in SCC-25 cells
T6 construct: Cells were scraped from the culture dishes, washed with phosphate-buffered saline (PBS), and centrifuged; endogenous in cells; host or cells: SCC-25
Experimental: as §1

[6] = biological target: T7, TSPO receptors in human tongue cancer cell line SCC-15 (Homo sapiens, UniProt P30536); assay: [3H]PK11195 saturation binding (Scatchard) in SCC-15 cells
T7 construct: endogenous in cells; host or cells: SCC-15
Experimental: as §1

TSPO receptor in saliva [7] = biological target: T4, TSPO receptor in saliva; assay: [3H]PK11195 binding in saliva from heavy smokers and non-smokers; details: for mean TSPO binding: 6 nM ligand
Experimental: as §2
The effect of long term CS-exposure on the salivary TSPO, of heavy smokers, was investigated. Saliva samples were collected from heavy smokers (smokers group) and from a control group of non-smoking volunteers (control group), and the total protein expression level as well as TSPO binding capacity was evaluated as follows.
The mean TSPO binding was calculated and found to be 53% lower in the smokers group, as compared to the control group (694±264; n=9 and 1,480±1,157; n=16, respectively; see, FIG. 7b). This statistically significant reduction (p<0.05) further supports the results obtained for the in-vitro exposure of saliva cells to CS (detailed above), and point to a CS-related reduced TSPO receptor binding capacity.

[8] = 10^-8 M, medium + 30% saliva, CS 120 minutes
[9] = 50% inhibition of [3H]PK11195 binding, SCC-25, read-out: IC50
[10] = 50% inhibition of [3H]PK11195 binding, SCC-15, read-out: IC50
[11] = inhibition of [3H]PK11195 binding, human saliva, four independent experiments, read-out: Ki

T4 sequence (P30536 whole entry): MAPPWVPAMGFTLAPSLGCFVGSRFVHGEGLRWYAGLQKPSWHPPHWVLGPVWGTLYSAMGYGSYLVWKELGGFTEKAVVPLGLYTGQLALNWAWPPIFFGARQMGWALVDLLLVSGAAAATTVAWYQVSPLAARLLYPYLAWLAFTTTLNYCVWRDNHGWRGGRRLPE
T3 sequence (P30536 whole entry): as above
T1 sequence (P30536 whole entry): as above
T2 sequence (P30536 whole entry): as above
T7 sequence (P30536 whole entry): as above
T6 sequence (P30536 whole entry): as above
T5 sequence (P30536 whole entry): as above

## CN1C(=O)CN=C(c2ccccc2)c2cc(Cl)ccc21 [Diazepam]
[1]
  IC50: 14.2 ± 5.72 µM
  potency in displacing [3H]PK11195, fold lower than PK11195: 1580 times
H1299 lung cancer cells; 10^-7 M
  effect on survival of H1299 cells exposed to CS (in words): significantly increased
H1299 lung cancer cells; 10^-7 M, medium + 30% saliva, CS 120 minutes
  increase of cell survival: 16%
H1299 lung cancer cells; 10^-8 M
  effect on survival of H1299 cells exposed to CS (in words): significantly increased
H1299 lung cancer cells; [8]
  increase of cell survival: 17.4%
[2]
  IC50: 14.1 ± 15.2 µM
Human salivary TSPO
  Ki: 4.5 µM
Human salivary TSPO; human saliva
  binding affinity lower than that of PK11195: three orders of magnitude

## CCCCCCN(CCCCCC)C(=O)Cc1c(-c2ccc(F)cc2)[nH]c2ccccc12 [FGIN-1-27]
[1]; [9]
  IC50: 0.152 ± 0.019 µM
[1]
  potency in displacing [3H]PK11195, fold lower than PK11195: 17 times
[2]; [10]
  IC50: 0.164 µM
Human salivary TSPO; human saliva
  binding affinity lower than that of PK11195: two orders of magnitude
Human salivary TSPO; [11]
  Ki: 0.15 µM

## CN1C(=O)CN=C(c2ccc(Cl)cc2)c2cc(Cl)ccc21 [Ro5-4864, 4-chlorodiazepam]
[1]; [9]
  IC50: 0.666 ± 0.036 µM
[1]
  potency in displacing [3H]PK11195, fold lower than PK11195: 74 times
[2]; [10]
  IC50: 2.07 ± 1.55 µM
Human salivary TSPO; human saliva
  binding affinity lower than that of PK11195: two orders of magnitude
Human salivary TSPO; [11]
  Ki: 0.5 µM

## O=C1CN=C(c2ccccc2Cl)c2cc([N+](=O)[O-])ccc2N1 [Clonazepam]
[1]; SCC-25
  affinity for TSPO (in words): negligible affinity
H1299 lung cancer cells; 10^-7 M
  effect on survival of H1299 cells exposed to CS (in words): No significant increase in survival levels
H1299 lung cancer cells; 10^-7 M, listed as clonazepam
  effect on survival of H1299 cells exposed to CS (in words): not significantly altered
H1299 lung cancer cells; 10^-8 M
  effect on survival of H1299 cells exposed to CS (in words): did not increase the survival level
H1299 lung cancer cells; [8]
  decrease of cells survival: 10.65%
Human salivary TSPO; human saliva
  affinity to TSPO (in words): negligible affinity

## CCC(C)N(C)C(=O)c1cc2ccccc2c(-c2ccccc2Cl)n1 (stereo not shown) [[^3H]PK11195]
TSPO receptor in saliva [3]
  Bmax (maximal binding capacity): 6,471±1,584 fmol/mg protein
[4]
  maximum amount of specifically bound ligand (Bmax): 3274±787 pmol/mg of protein
[5]
  Bmax (maximal binding capacity): 3133±643 fmoles/mg protein
  non-specific binding as part of total binding: a third
[6]
  Bmax: 6956±5492 fmoles/mg protein
  non-specific binding as part of total binding: 25±3.2%
TSPO receptor in saliva [7]; control group (non-smokers), n=16
  mean TSPO binding: 1,480±1,157
TSPO receptor in saliva [7]; smokers group, n=9
  mean TSPO binding: 694±264
TSPO receptor in saliva [7]; smokers vs control group
  mean TSPO binding lower in smokers than control group: 53%
